# Measurements taken from patent US20090270382A1, “Soluble epoxide hydrolase inhibitors” (Arete Therapeutics, Inc., priority 2008, published 2009).
# Tests used:
# [1] = system: soluble epoxide hydrolase (sEH); assay: Fluorescent assay for mouse and human soluble epoxide hydrolase (CMNPC substrate); assay type: biochemical
# Source text: Fluorescent Assay for Mouse and Human Soluble Epoxide Hydrolase Recombinant mouse sEH (MsEH) and human sEH (HsEH) were produced in a baculovirus expression system as previously reported. Grant et al., J. Biol. Chem., 268:17628-17633 (1993); Beetham et al., Arch. Biochem. Biophys., 305:197-201 (1993). The expressed proteins were purified from cell lysate by affinity chromatography. Wixtrom et al., Anal. Biochem., 169:71-80 (1988). Protein concentration was quantified using the Pierce BCA assay using bovine serum albumin as the calibrating standard. The preparations were at least 97% pure as judged by SDS-PAGE and scanning densitometry. They contained no detectable esterase or glutathione transferase activity which can interfere with the assay. The assay was also evaluated with similar results in crude cell lysates or homogenate of tissues. The IC50s for each inhibitor were according to the following procedure: […] Jones P. D. et. al.; Analytical Biochemistry 2005; 343: pp. 66-75) Bis/Tris HCl 25 mM pH 7.0 containing 0.1 mg/mL of BSA (buffer […] at 0.25 mM in DMSO. Mother solution of enzyme in buffer A (Mouse sEH at 6 μg/mL and Human sEH at 5 μg/mL). Inhibitor dissolved in DMSO at the appropriate concentration. In a black 96 well plate, fill all the wells with 150 μL of buffer A. Add 2 μL of DMSO in well A2 and A3, and then add 2 μL of inhibitor solution in A1 and A4 through A12. Add 150 μL of buffer A in row A, then mix several time and transfer 150 μL to row B. Repeat this operation up to row H. The 150 μL removed from row H is discarded. Add 20 μL of buffer A in column 1 and 2, then add 20 μL of enzyme solution to column 3 to 12. Incubate the plate for 5 minutes in the plate reader at 30° C. During incubation prepare the working solution of substrate by mixing 3.68 mL of buffer A (4×0.920 mL) with 266 μL (2×133 μL) of substrate solution). At t=0, add 30 μL of working substrate solution with multi-channel pipette labeled “Briggs 303” and start the reading ([S]final: 5 μM). […] The velocities are used to analyze and calculate the IC50s.
melting point [°C],% Inhibition ([1]; compound concentration 200 nM) [%],% Inhibition ([1]; compound concentration 2000 nM) [%],Structure (SMILES)
,,100,"O=C(Nc1ccc(OC(F)(F)F)cc1)NC1CCN(C(=O)c2cccnc2)CC1 [Compound 12, 1-(1-nicotinoylpiperidin-4-yl)-3-(4-(trifluoromethoxy)phenyl)urea]"
89 to 91,,99,"O=C(Nc1ccc(OC(F)(F)F)cc1)NC1CCN(C(=O)c2cnccc2C(F)(F)F)CC1 [Compound 13, 1-(4-(trifluoromethoxy)phenyl)-3-(1-(4-(trifluoromethyl)nicotinoyl)piperidin-4-yl)urea]"
230 to 232,,100,"O=C(Nc1ccc(OC(F)(F)F)cc1)NC1CCN(C(=O)c2ccc(-c3ccccc3)nc2)CC1 [Compound 14, 1-(1-(6-phenylnicotinoyl)piperidin-4-yl)-3-(4-(trifluoromethoxy)phenyl)urea]"
265 to 268,,100,"O=C(Nc1ccc(OC(F)(F)F)cc1)NC1CCN(C(=O)c2ccc(N3CCOCC3)nc2)CC1 [Compound 15, 1-(1-(6-morpholinonicotinoyl)pipendin-4-yl)-3-(4-(trifluoromethoxy)phenyl)urea]"
182 to 185,,100,"O=C(Nc1ccc(OC(F)(F)F)cc1)NC1CCN(C(=O)c2ccc(Oc3ccccc3)nc2)CC1 [Compound 16, 1-(1-(6-phenoxynicotinoyl)piperidin-4-yl)-3-(4-(trifluoromethoxy)phenyl)urea]"
212 to 214,,100,"CN1CCOc2cc(C(=O)N3CCC(NC(=O)Nc4ccc(OC(F)(F)F)cc4)CC3)cnc21 [Compound 17, 1-(1-(4-methyl-3,4-dihydro-2H-pyrido[3,2-b][1,4]oxazine-7-carbonyl)piperidin-4-yl)-3-(4-(trifluoromethoxy)phenyl)urea]"
213 to 215,,97,"O=C(Nc1ccc(OC(F)(F)F)cc1)NC1CCN(C(=O)c2ccc(Cl)cn2)CC1 [Compound 18, 1-(1-(5-chloropicolinoyl)piperidin-4-yl)-3-(4-(trifluoromethoxy)phenyl)urea]"

# The next lines start with the compound.
Structure (SMILES),melting point [°C],% Inhibition ([1]; compound concentration 200 nM) [%],% Inhibition ([1]; compound concentration 2000 nM) [%]
"O=C(Nc1ccc(OC(F)(F)F)cc1)NC1CCN(C(=O)c2cncc(C(=O)O)c2)CC1 [Compound 1, 5-(4-(3-(4-(trifluoromethoxy)phenyl)ureido)piperidine-1-carbonyl)nicotinic acid]",211 to 213,94,
"O=C(Nc1ccc(OC(F)(F)F)cc1)NC1CCN(C(=O)c2ccc(C(F)(F)F)nc2)CC1 [Compound 2, 1-(4-(trifluoromethoxy)phenyl)-3-(1-(6-(trifluoromethyl)nicotinoyl)piperidin-4-yl)urea]",206 to 208,97,
"Cc1ncccc1C(=O)N1CCC(NC(=O)Nc2ccc(OC(F)(F)F)cc2)CC1 [Compound 3, 1-(1-(2-methylnicotinoyl)piperidin-4-yl)-3-(4-(trifluoromethoxy)phenyl)urea]",107 to 109,95,
"Cc1ccc(C(=O)N2CCC(NC(=O)Nc3ccc(OC(F)(F)F)cc3)CC2)cn1 [Compound 4, 1-(1-(6-methylnicotinoyl)piperidin-4-yl)-3-(4-(trifluoromethoxy)phenyl)urea]",206 to 208,97,
"COc1ncccc1C(=O)N1CCC(NC(=O)Nc2ccc(OC(F)(F)F)cc2)CC1 [Compound 5, 1-(1-(2-methoxynicotinoyl)piperidin-4-yl)-3-(4-(trifluoromethoxy)phenyl)urea]",92 to 94,99,
"O=C(Nc1ccc(OC(F)(F)F)cc1)NC1CCN(S(=O)(=O)c2cccnc2)CC1 [Compound 6, 1-(1-(pyridin-3-ylsulfonyl)piperidin-4-yl)-3-(4-(trifluoromethoxy)phenyl)urea]",217 to 219,96,
"O=C(Nc1ccc(OC(F)(F)F)cc1)NC1CCN(C(=O)c2cncc(F)c2)CC1 [Compound 7, 1-(1-(5-fluoronicotinoyl)piperidin-4-yl)-3-(4-(trifluoromethoxy)phenyl)urea]",156 to 157,,98
"O=C(Nc1ccc(OC(F)(F)F)cc1)NC1CCN(C(=O)c2ccncc2)CC1 [Compound 8, 1-(1-isonicotinoylpiperidin-4-yl)-3-(4-(trifluoromethoxy)phenyl)urea]",,,99
"COc1ccc(C(=O)N2CCC(NC(=O)Nc3ccc(OC(F)(F)F)cc3)CC2)cn1 [Compound 9, 1-(1-(6-methoxynicotinoyl)piperidin-4-yl)-3-(4-(trifluoromethoxy)phenyl)urea]",200 to 202,,99
"O=C(Nc1cccc(OC(F)(F)F)c1)NC1CCN(C(=O)c2cccnc2)CC1 [Compound 10, 1-(1-nicotinoylpiperidin-4-yl)-3-(3-(trifluoromethoxy)phenyl)urea]",,,99
"O=C(Nc1ccc(OC(F)(F)F)cc1)NC1CCN(C(=O)Cc2ccccn2)CC1 [Compound 11, 1-(1-(2-(pyridin-2-yl)acetyl)piperidin-4-yl)-3-(4-(trifluoromethoxy)phenyl)urea]",,,100
